Some test systems named below: UACC-257 melanoma; HCC-2998 colon; OVCAR-8 ovarian; HS 578T breast; MALME-3M melanoma; TK-10 renal; PC-3 prostate; NCI-H23 lung; IGROV1 ovarian; SK-OV-3 ovarian.
Assay in all cases: inhibition of tumour cell growth, NCI panel, 48 h

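Results reflect a 48-hour exposure of cells in 96-well plates to compound at five concentrations. GI50 = concentration required for 50% inhibition of growth. TGI is the concentration that stops growth completely.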

Regarding `CC1(C)OC(=O)C(C#N)=C1C[n+]1ccccc1`, the TGI with UACC-257 melanoma, in the assay on HCC-2998 colon, with OVCAR-8 ovarian, with HS 578T breast, with MALME-3M melanoma and with TK-10 renal was greater than 10 µM in each case. Moreover, the TGI in the assay with PC-3 prostate, in the assay on NCI-H23 lung, in the assay with IGROV1 ovarian and in the assay on SK-OV-3 ovarian was greater than 10 µM throughout.

As for `COc1cc(OC)c(OC)cc1/C=C/c1cnnc2ccccc12`, the TGI in the assay with UACC-257 melanoma, in the assay on HCC-2998 colon, in the assay on OVCAR-8 ovarian, with HS 578T breast, with MALME-3M melanoma and with TK-10 renal was greater than 10 µM in each case. Moreover, the TGI in the assay on PC-3 prostate, with NCI-H23 lung, with IGROV1 ovarian and in the assay on SK-OV-3 ovarian was greater than 10 µM each time.

For `CC(C)C(=O)c1c(C(F)(F)F)n([O-])c2cc(F)c(F)cc2[n+]1=O`, the GI50 in the assay on UACC-257 melanoma was 2.28 µM; in the assay with HCC-2998 colon, 0.326 µM; with OVCAR-8 ovarian, 0.262 µM; in the assay on HS 578T breast, 0.598 µM; in the assay with MALME-3M melanoma, 0.693 µM; in the assay on TK-10 renal, 0.976 µM. The GI50 in the assay on PC-3 prostate was 0.521 µM; with NCI-H23 lung, 0.263 µM; with IGROV1 ovarian, 0.161 µM; with SK-OV-3 ovarian it was 1.04 µM. Besides, the TGI with UACC-257 melanoma is 6.38 µM; with HCC-2998 colon, 1.37 µM; in the assay with OVCAR-8 ovarian, 0.85 µM; with HS 578T breast, 2.64 µM; with MALME-3M melanoma it was 2.21 µM; in the assay on TK-10 renal it was 2.67 µM. Besides, the TGI with PC-3 prostate stood at 1.13 µM; with NCI-H23 lung, 1.16 µM; with IGROV1 ovarian, 53.7 µM; in the assay on SK-OV-3 ovarian, 2.85 µM.

As for `O=C(c1ccccc1)c1c(C(F)(F)F)n([O-])c2cc(C(F)(F)F)ccc2[n+]1=O`, the GI50 with UACC-257 melanoma is 1.71 µM; in the assay with HCC-2998 colon, 1.88 µM; in the assay with OVCAR-8 ovarian, 1.87 µM; in the assay with HS 578T breast, 1.8 µM; in the assay with MALME-3M melanoma, 1.6 µM; with TK-10 renal, 1.75 µM. Besides, the GI50 was 1.19 µM in the assay on PC-3 prostate, 1.54 µM with NCI-H23 lung, 0.207 µM in the assay on IGROV1 ovarian and 1.77 µM in the assay with SK-OV-3 ovarian. For the same molecule, the TGI was 3.35 µM with UACC-257 melanoma; 3.44 µM with HCC-2998 colon; 5.46 µM in the assay with OVCAR-8 ovarian; 4.29 µM with HS 578T breast; 3.33 µM in the assay on MALME-3M melanoma; 3.18 µM in the assay on TK-10 renal. The TGI in the assay on PC-3 prostate stood at 2.54 µM; in the assay on NCI-H23 lung, 4.9 µM; in the assay on IGROV1 ovarian, 0.489 µM; with SK-OV-3 ovarian, 3.21 µM.

Regarding `COc1ccc(/C=C2\SC(=Nc3ccccc3)NC2=O)cc1`, the GI50 is 52.2 µM in the assay with UACC-257 melanoma; 10 µM in the assay with HCC-2998 colon; 6.62 µM in the assay on OVCAR-8 ovarian; 4.32 µM in the assay with HS 578T breast; 19 µM with MALME-3M melanoma; 41.4 µM in the assay on TK-10 renal. Besides, the GI50 in the assay with PC-3 prostate was 7.69 µM; with NCI-H23 lung, 8.6 µM; in the assay with IGROV1 ovarian it was 13.6 µM; in the assay with SK-OV-3 ovarian, 12.6 µM. In addition, the TGI in the assay with UACC-257 melanoma was greater than 100 µM; in the assay with HCC-2998 colon, greater than 100 µM; in the assay on OVCAR-8 ovarian, 31.7 µM; in the assay with HS 578T breast, 40.7 µM; with MALME-3M melanoma it was 99.8 µM; with TK-10 renal, greater than 100 µM. In addition, the TGI is greater than 100 µM in the assay on PC-3 prostate, 80.5 µM in the assay on NCI-H23 lung, greater than 100 µM in the assay on IGROV1 ovarian and 46.8 µM in the assay with SK-OV-3 ovarian.

With `CO/N=C(\C([O-])=N\[n+]1cnn(CC(=O)OC(C)(C)C)c1)c1csc(NC(c2ccccc2)(c2ccccc2)c2ccccc2)n1`, the TGI in the assay on UACC-257 melanoma, in the assay on HCC-2998 colon, in the assay on OVCAR-8 ovarian, in the assay on HS 578T breast, in the assay with MALME-3M melanoma and in the assay with TK-10 renal was greater than 10 µM throughout. Besides, the TGI in the assay with PC-3 prostate, in the assay on NCI-H23 lung, with IGROV1 ovarian and with SK-OV-3 ovarian was greater than 10 µM in each case.

For `CC(C)=CC(=O)N[C@H]1CC[C@]2(C)C3CC[C@]4(C)C(C(C)N(C)C)=CCC4C3CCC2[C@H]1O` (stereo not given in full), the GI50 in the assay on UACC-257 melanoma was 2.39 µM; with HCC-2998 colon, 5.22 µM; in the assay with OVCAR-8 ovarian, 13.9 µM; in the assay on HS 578T breast, 4.25 µM; in the assay on MALME-3M melanoma it was 1.89 µM; in the assay on TK-10 renal it was 11 µM. For the same molecule, the GI50 with PC-3 prostate is 3.88 µM; in the assay on NCI-H23 lung, 9.27 µM; in the assay on IGROV1 ovarian, 8.5 µM; with SK-OV-3 ovarian, 12.1 µM. Moreover, the TGI in the assay with UACC-257 melanoma was 5.59 µM; in the assay on HCC-2998 colon, 17.8 µM; with OVCAR-8 ovarian, greater than 51.8 µM; in the assay on HS 578T breast it was 18.8 µM; with MALME-3M melanoma, 4.23 µM; in the assay on TK-10 renal, 26.3 µM. Also, the TGI in the assay on PC-3 prostate was 18.1 µM; in the assay with NCI-H23 lung, 22.7 µM; in the assay with IGROV1 ovarian, 25.3 µM; in the assay on SK-OV-3 ovarian, 24.6 µM.

Consider `Cc1c(Cl)cccc1NC(=O)/C=C/c1ccccc1`, for which the TGI with UACC-257 melanoma, in the assay on HCC-2998 colon, with OVCAR-8 ovarian, in the assay on HS 578T breast, in the assay on MALME-3M melanoma and with TK-10 renal was greater than 100 µM throughout. The TGI in the assay on PC-3 prostate, in the assay with NCI-H23 lung, in the assay on IGROV1 ovarian and in the assay with SK-OV-3 ovarian was greater than 100 µM each time.

Take `COc1ccc(NC(=O)c2sc3nc(C)c(C(=O)/C=C/c4cccc(OC)c4)cc3c2N)cc1`: the GI50 in the assay on UACC-257 melanoma is 1.74 µM; with HCC-2998 colon, 1.52 µM; in the assay on OVCAR-8 ovarian it was 1.59 µM; in the assay with HS 578T breast, 4.5 µM; in the assay on MALME-3M melanoma it was 3.85 µM; in the assay with TK-10 renal, 1.91 µM. Also, the GI50 with PC-3 prostate is 1.56 µM; in the assay on NCI-H23 lung, 2.35 µM; in the assay on IGROV1 ovarian, 1.03 µM; in the assay with SK-OV-3 ovarian it was 6.71 µM. Moreover, the TGI is 11.7 µM with UACC-257 melanoma; 5.32 µM with HCC-2998 colon; greater than 50 µM in the assay with OVCAR-8 ovarian; greater than 50 µM with HS 578T breast; 45 µM in the assay on MALME-3M melanoma; 15.3 µM in the assay with TK-10 renal. For the same molecule, the TGI with PC-3 prostate is 6.55 µM; in the assay with NCI-H23 lung, 18.6 µM; with IGROV1 ovarian, 2.83 µM; with SK-OV-3 ovarian, 46 µM.

Values taken from PubChem BioAssay (NCI).
